What was measured:
Assay type in all cases: functional
HL-60(TB) = assay: Growth inhibition of human HL-60(TB) cells assessed as cell growth at 10^-6 M incubated for 48 hrs by sulforhodamine B assay relative to control; conditions: HL-60, 48 h, read-out: Activity
TK-10 [1] = assay: Growth inhibition of human TK10 cells assessed as cell growth at 10^-5 M incubated for 48 hrs by sulforhodamine B assay relative to control; conditions: TK-10, 48 h, read-out: Activity
NCI-H322M = assay: Growth inhibition of human NCI-H322M cells assessed as cell growth at 10^-5 M incubated for 48 hrs by sulforhodamine B assay relative to control; conditions: read-out: Activity
COLO 205 [2] = assay: Growth inhibition of human COLO205 cells assessed as cell growth at 10^-8 M incubated for 48 hrs by sulforhodamine B assay relative to control; conditions: COLO 205, 48 h, read-out: Activity
RXF 393 = assay: Growth inhibition of human RXF393 cells assessed as cell growth at 10^-6 M incubated for 48 hrs by sulforhodamine B assay relative to control; conditions: RXF 393, 48 h, read-out: Activity
MDA-MB-435 [3] = assay: Growth inhibition of human MDA-MB-435 cells assessed as cell growth at 10^-6 M incubated for 48 hrs by sulforhodamine B assay relative to control; conditions: MDA-MB-435, 48 h, read-out: Activity
UO-31 = assay: Growth inhibition of human UO31 cells assessed as cell growth at 10^-7 M incubated for 48 hrs by sulforhodamine B assay relative to control; conditions: UO-31, 48 h, read-out: Activity
HT-29 = assay: Growth inhibition of human HT-29 cells assessed as cell growth at 10^-8 M incubated for 48 hrs by sulforhodamine B assay relative to control; conditions: HT-29, 48 h, read-out: Activity
SNB-19 = assay: Growth inhibition of human SNB19 cells assessed as cell growth at 10^-6 M incubated for 48 hrs by sulforhodamine B assay relative to control; conditions: SNB-19, 48 h, read-out: Activity
SN12C [4] = assay: Growth inhibition of human SN12C cells assessed as cell growth at 10^-8 M incubated for 48 hrs by sulforhodamine B assay relative to control; conditions: read-out: Activity
Malme-3M = assay: Growth inhibition of human MALME-3M cells assessed as cell growth at 10^-4 M incubated for 48 hrs by sulforhodamine B assay relative to control; conditions: read-out: Activity
OVCAR-5 = assay: Growth inhibition of human OVCAR5 cells assessed as cell growth at 10^-6 M incubated for 48 hrs by sulforhodamine B assay relative to control; conditions: OVCAR-5, 48 h, read-out: Activity
SN12C [5] = assay: Growth inhibition of human SN12C cells assessed as cell growth at 10^-5 M incubated for 48 hrs by sulforhodamine B assay relative to control; conditions: read-out: Activity
SK-MEL-2 = assay: Growth inhibition of human SK-MEL-2 cells assessed as cell growth at 10^-7 M incubated for 48 hrs by sulforhodamine B assay relative to control; conditions: SK-MEL-2, 48 h, read-out: Activity
DU-145 = assay: Growth inhibition of human DU145 cells assessed as cell growth at 10^-5 M incubated for 48 hrs by sulforhodamine B assay relative to control; conditions: DU-145, 48 h, read-out: Activity
SW-620 = assay: Growth inhibition of human SW620 cells assessed as cell growth at 10^-6 M incubated for 48 hrs by sulforhodamine B assay relative to control; conditions: SW-620, 48 h, read-out: Activity
T47D = assay: Growth inhibition of human T47D cells assessed as cell growth at 10^-5 M incubated for 48 hrs by sulforhodamine B assay relative to control; conditions: read-out: Activity
MOLT-4 [6] = assay: Growth inhibition of human MOLT4 cells assessed as cell growth at 10^-6 M incubated for 48 hrs by sulforhodamine B assay relative to control; conditions: MOLT-4, 48 h, read-out: Activity
HOP-62 = assay: Growth inhibition of human HOP62 cells assessed as cell growth at 10^-4 M incubated for 48 hrs by sulforhodamine B assay relative to control; conditions: HOP-62, 48 h, read-out: Activity
COLO 205 [7] = assay: Growth inhibition of human COLO205 cells assessed as cell growth at 10^-7 M incubated for 48 hrs by sulforhodamine B assay relative to control; conditions: COLO 205, 48 h, read-out: Activity
HCC 2998 = assay: Growth inhibition of human HCC2998 cells assessed as cell growth at 10^-8 M incubated for 48 hrs by sulforhodamine B assay relative to control; conditions: HCC 2998, 48 h, read-out: Activity
A498 = assay: Growth inhibition of human A498 cells assessed as cell growth at 10^-6 M incubated for 48 hrs by sulforhodamine B assay relative to control; conditions: A498, 48 h, read-out: Activity
PC-3 = assay: Growth inhibition of human PC3 cells assessed as cell growth at 10^-7 M incubated for 48 hrs by sulforhodamine B assay relative to control; conditions: PC-3, 48 h, read-out: Activity
NCI-H522 = assay: Growth inhibition of human NCI-H522 cells assessed as cell growth at 10^-5 M incubated for 48 hrs by sulforhodamine B assay relative to control; conditions: NCI-H522, 48 h, read-out: Activity
MDA-MB-435 [8] = assay: Growth inhibition of human MDA-MB-435 cells assessed as cell growth at 10^-7 M incubated for 48 hrs by sulforhodamine B assay relative to control; conditions: MDA-MB-435, 48 h, read-out: Activity
TK-10 [9] = assay: Growth inhibition of human TK10 cells assessed as cell growth at 10^-7 M incubated for 48 hrs by sulforhodamine B assay relative to control; conditions: TK-10, 48 h, read-out: Activity
OVCAR-4 = assay: Growth inhibition of human OVCAR4 cells assessed as cell growth at 10^-7 M incubated for 48 hrs by sulforhodamine B assay relative to control; conditions: OVCAR-4, 48 h, read-out: Activity
MDA-MB-231 [10] = assay: Growth inhibition of human MDA-MB-231 cells assessed as cell growth at 10^-8 M incubated for 48 hrs by sulforhodamine B assay relative to control; conditions: MDA-MB-231, 48 h, read-out: Activity
MOLT-4 [11] = assay: Growth inhibition of human MOLT4 cells assessed as cell growth at 10^-4 M incubated for 48 hrs by sulforhodamine B assay relative to control; conditions: MOLT-4, 48 h, read-out: Activity
SF-295 = assay: Growth inhibition of human SF295 cells assessed as cell growth at 10^-7 M incubated for 48 hrs by sulforhodamine B assay relative to control; conditions: SF-295, 48 h, read-out: Activity
MDA-MB-231 [12] = assay: Growth inhibition of human MDA-MB-231 cells assessed as cell growth at 10^-5 M incubated for 48 hrs by sulforhodamine B assay relative to control; conditions: MDA-MB-231, 48 h, read-out: Activity
NCI-H23 = assay: Growth inhibition of human NCI-H23 cells assessed as cell growth at 10^-7 M incubated for 48 hrs by sulforhodamine B assay relative to control; conditions: NCI-H23, 48 h, read-out: Activity
ACHN = assay: Growth inhibition of human ACHN cells assessed as cell growth at 10^-7 M incubated for 48 hrs by sulforhodamine B assay relative to control; conditions: read-out: Activity
OVCAR-3 = assay: Growth inhibition of human OVCAR3 cells assessed as cell growth at 10^-7 M incubated for 48 hrs by sulforhodamine B assay relative to control; conditions: OVCAR-3, 48 h, read-out: Activity

Compound CCCCOc1nc2ccccc2cc1C1CNC(=O)c2ccccc2N1 (centres undefined) has a growth at 1 µM (HL-60(TB)) of -19%, a growth at 10 µM (TK-10 [1]) of 31% and a growth at 10 µM (NCI-H322M) of 31%. The growth at 0.01 µM (COLO 205 [2]) was 96%, the growth at 1 µM (RXF 393) was 80% and the growth at 1 µM (MDA-MB-435 [3]) was 8%. The growth at 0.1 µM (UO-31) was 86%, the growth at 0.01 µM (HT-29) was 94% and the growth at 1 µM (SNB-19) was 95%. For the same compound, the growth at 0.01 µM (SN12C [4]) was 97%, the growth at 100 µM (Malme-3M) was -53% and the growth at 1 µM (OVCAR-5) was 98%. The growth at 10 µM (SN12C [5]) was 19%, the growth at 0.1 µM (SK-MEL-2) was 99% and the growth at 10 µM (DU-145) was 5%. It also gave a growth at 1 µM (SW-620) of 66%, a growth at 10 µM (T47D) of 36% and a growth at 1 µM (MOLT-4 [6]) of 92%. For the same compound, the growth at 100 µM (HOP-62) was -59%, the growth at 0.1 µM (COLO 205 [7]) was 95% and the growth at 0.01 µM (HCC 2998) was 99%. It also gave a growth at 1 µM (A498) of 42%, a growth at 0.1 µM (PC-3) of 97% and a growth at 10 µM (NCI-H522) of 25%. It also gave a growth at 0.1 µM (MDA-MB-435 [8]) of 98%, a growth at 0.1 µM (TK-10 [9]) of 83% and a growth at 0.1 µM (OVCAR-4) of 98%. The growth at 0.01 µM (MDA-MB-231 [10]) was 98%, the growth at 100 µM (MOLT-4 [11]) was -37% and the growth at 0.1 µM (SF-295) was 88%. For the same compound, the growth at 10 µM (MDA-MB-231 [12]) was 25%, the growth at 0.1 µM (NCI-H23) was 95% and the growth at 0.1 µM (ACHN) was 98%. For the same compound, the growth at 0.1 µM (OVCAR-3) was 98%.

From ChEMBL document CHEMBL4138146, “A Schmidt rearrangement-mediated synthesis of novel tetrahydro-benzo[1,4]diazepin-5-ones as potential anticancer and antiprotozoal agents” (Eur J Med Chem, 2017)
